According to patent US20140099354A1, “BIOPASSIVATING MEMBRANE STABILIZATION BY MEANS OF NITROCARBOXYLIC ACID-CONTAINING PHOSPHOLIPIDS IN PREPARATIONS AND COATINGS” (priority 2011, published 2014):

Columns and labels:
sciatic nerve = assay: Viability of cryopreserved nerve grafts (Annexin-V staining, FACS); assay type: cell-based, rats; details: 100 mmolar solution 1 hour; −30° C. 72 hours
Method: The sciatic nerve was prepared and sectured in anesthetized rats. The nerve pieces were freed from connective tissue and divided into 3 parts. Specimens were placed in culture DMEM medium containing low a concentration of glucose (1 g/L) with L-glutamine (PAA, Pasching Austria) for 24 hours. […] Nerve specimens from the same animals that received no pretreatment served as controls. After incubation, the specimens were cultured for 24 hours. In a further control group, specimens were cryopreserved without any pretreatment. The specimens were covered with a sterile gauze pad moistened with culture medium. Thereafter the temperature was gradually cooled to −30° C. After 72 hours, the nerve pieces were gradually rewarmed to 37° C. After this, renewed culturing was done for 48 hours. The nerve pieces were dissected enzymatically then (collagenase A and D, Roche, Mannheim, Germany) followed by a mechanical separation through multiple uptake and release in a glass pipette. The isolated cells were washed and marked with a living/death staining (Annexin-V-Fluos staining Kit, Roche Diagnostics, Mannheim, Germany) and quantified using FACS analysis. The number of living cells identified was set in relation to the total cells count.

ovarian tissue strips = assay: Cryopreservation of ovarian tissue strips: intact follicles; details: liquid nitrogen 14 days, cultured 14 days
Method: Ovar ectomy was performed in female sheep; resected tissues were cut into 60 ovarian tissue strips. The ovarian strips were either cultured directly (n=4) or prepared with a usual solution for vitrification (VS group; Vitrification Kit, Sage, USA) or incubated with nitrated PLs (NPL group). For this purpose, the tissue strips were bathed in an equibrilation solution (ART-8025-A) which consisted of MOPS-buffered amino acids and gentamicin sulfate (10 mg/l), and 7.5% (v/v) of each DMSO and ethylene glycol and 12 mg/ml human serum albumin for 30 minutes. Thereafter the strips of the VS group were placed in the vitrification solution (ART-8025-B), which is a MOPS-buffered solution containing amino acids and gentamicin sulfate, that contain 15% (v/v) each DMSO and ethylenglycol, 12 mg/ml human albumin and 0.6 M sucrose. The strips of the NPL group were placed in a solution containing 25% (v/v) nitrated PL SNOPC or PNLPC in a PBS-buffered 1% DMSO solution containing 5% human albumin for 60 minutes. The treated tissue strips were then immersed into liquid nitrogen and kept here for 14 days. Then removal and warming of the tissue pieces was performed in AIM-V medium (Gibco, Invitrogen) in a sterile culture dish, first up to 5° C. within 20 minutes, then heated further in a water bath up to 37° C., within the following 60 minutes. The culture medium was replaced and specimens cultured for 14 days. After this, the tissue pieces were fixed, embedded in paraffin and cut, followed by histological examination. […] The total number of intact follicles in the control group was taken as a reference to the number of follicles in the cryopreserved groups.
The culture medium has been exchanged by every 2nd day; samples for hormone analysis were taken and frozen at that time. Determination of 17 β-estradiol and progesterone were performed with a radio-immuno assay (diagnostic systems laboratories, USA).

cortical neurons = assay: Hypoxia and reperfusion of cortical neurons (viability, LDH); details: for results of the hypoxia experiments compared with reference nitrated phospholipids: neurons and cardiac myocytes, 10 to 50 μmol/l
Method: To determine whether the membrane-stabilizing properties of nitrated phospholipids can lead to attenuation of effects due to an ischemic event or the re-perfusion damage, cortical neurons and cardiac myocytes were investigated.
Freshly prepared cortex tissue was separated with Papain and tissue suspensions were cultured in culture vessels (Prim ARA; BD Biosciences, USA) with Neurobasal A/B27 medium (Invitrogen) for 10-12 days. Cell suspensions were divided, and replenished with suspensions of the natural phospholipids SOPC and PLPC, as well as the analogue phospholipids with nitration of unsaturated fatty acids (1-stearoyl-2-(9-nitrooleoyl)-sn-PC and 1-palmitoyl-2-(9-nitrolinoleoyl)-sn-PC) at concentrations of 10 to 50 μmol/l in NaCl (0.9%) were added. […] After 4 hours, the cells were washed three times with buffered saline and buffered NaCl solution with the addition of MgCl2 and CaCl2 in an anaerobic atmosphere (85% N2, 5% O2, 10% CO2; at 35° C.) for 10 and 30 minutes. Then, the cells were washed once and grown in culture medium under aerobic conditions for 24 hours. […] Cells were stained with annexin V-FITC and propidium iodide (Molecular probes, USA). The vital and necrotic cells were measured by flow cytometry (FACSCalibur, Becton & Dickinson). The volume of culture medium was determined and an aliquot was taken for determination of the LDH (lactate dehydrogenase) concentration.

[1] = test system: Cardiac muscle cells derived from neonatal rat heart; assay: Hypoxia of cardiac muscle cells (viability, mitochondrial NAD+); assay type: cell-based; details: for mitochondrial NAD+ content: hypoxia, baseline 5
Method: Cardiac muscle cells derived from neonatal rat heart (Nitobe J, et al, Reactive oxygene species regulate FLICE inhibitory protein and susceptibility to FAS-mediated apoptosis in cardiac myocytes. Cardiovasc RES 2003, 119-28). The heart muscle cells were cultured in Dulbecco/Eagle medium (DMEM) with 10% FCS added under standard conditions for two days. Incubation with the natural and nitrated phospholipids, as well as the hypoxia experiments were carried out as described above. Incubated cells were grown in culture medium under standard conditions for 24 hours. This is followed by a vitality staining as described above. […] The frozen cells were thawed up to -4° C. and homogenized for subsequent NAD^+ analyses. By means of differential centrifuge, pellets containing mitochondria were separated (Di Lisa, et al, 1993; Am. J. Physiol. 264, […]-[…]). The NAD^+ content was determined by fluoroscopy, and normalized to the protein content (Veloso, D., and […]., 1974;) Anal. Biochem., 449-450).

Molecule	proportion of living cells relative to non-frozen control (sciatic nerve)	rate of intact follicles relative to the control group (ovarian tissue strips)	other results
1-oleoyl-2-(9-nitropalmitoleoyl)-sn-3-glycerophosphocholine and 1-oleoyl-2-(10-nitropalmitoleoyl)-sn-3-glycerophosphocholine [Example P1]	90%		
1,2-di-(9-nitrogadleoyl)-sn-3-glycerophosphocholine, 1,2-di-(10-nitrolinoleoyl)-sn-3-glycerophosphocholine, 1-(9-nitrolinoleoyl)-2-(10-nitrogadoleoyl)-sn-3-glycerophosphocholine and 1-(10-nitrogadoleoyl)-2-(9-nitrogadoleoyl)-sn-3-glycerophosphocholine [Example N9]	79%	90%	
1,2-di-(hydroxyl, nitro-8,11,14,17-eicosatetraenoyl)-sn-3-glycerophosphocholine [Example O5]			results of the hypoxia experiments compared with reference nitrated phospholipids (cortical neurons): slightly worse results
1-Palmitoyl-2-(10-hydroxy-9-nitro-α-linolenoyl)-sn-3-glycerophosphocholine and 1-palmitoyl-2-(9-hydroxy-10-nitro-α-linolenoyl)-sn-3-glycerophosphocholine [Example O6]	78%		results of the hypoxia experiments compared with reference nitrated phospholipids (cortical neurons): slightly worse results
CCCCC/C=C\C/C=C\CCCCCCCC(=O)O[C@H](COC(=O)CCCCCCCCCCCCCCC)COP(=O)([O-])OCC[N+](C)(C)C [PLPC, 1-Palmitoyl-2-linoleoyl-sn-glycero-3-PC, reference compound]			increase in LDH versus normoxemia culture (cortical neurons; 10-minutes ischemia): 380 fold; viability of cortical cells measured after 24 hours (cortical neurons; 10-minutes ischemia): 30%; increase in LDH versus normoxemia culture (cortical neurons; 30-minutes ischemia): 630 fold; viability of cortical cells measured after 24 hours (cortical neurons; 30-minutes ischemia): 0%; loss of viability of heart muscle cells after hypoxia ([1]; (10 minutes)): 16%; loss of viability of heart muscle cells after hypoxia ([1]; (30 minutes)): 42%; mitochondrial NAD+ content ([1]; first printed value): 2.4 nmol/mg protein; mitochondrial NAD+ content ([1]; second printed value): 0.7 nmol/mg protein
1,2-Di-(9-hydroxy-10-nitrostearoyl)-sn-3-glycerophosphocholine, 1-(9-hydroxy-10-nitrostearoyl)-2-(10-hydroxy-9-nitrostearoyl)-sn-3-glycerophosphocholine, 1-(10-hydroxy-9-nitrostearoyl)-2-(9-hydroxy-10-nitrostearoyl)-sn-3-glycerophosphocholine and 1,2-di-(10-hydroxy-9-nitrostearoyl)-sn-3-glycerophosphocholine [Example O3]		91%	
CCCCCCCC/C=C\CCCCCCCC(=O)O[C@H](COC(=O)CCCCCCCCCCCCCCC)COP(=O)(O)OC1[C@H](O)[C@H](O)C(O)[C@H](O)[C@H]1O (stereo partly drawn) [POPI, 1-Palmitoyl-2-oleoyl-sn-3-glycero-phosphatidylinositol, reference compound]	20%		
1-eicosapentaenoyl-2-(5-nitro-EPA)-sn-3-glycerophosphocholine and 1-eicosapentaenoyl-2-(6-nitro-EPA)-sn-3-glycerophosphocholine [Example P4]	74%	93%	
1,2-di-(nitro-γ-linolenoyl)-sn-glycero-3-phosphatidylcholines [Example N5]		89%	
CCCCCC/C(=C\CCCCCCCC(=O)OC[C@H](COP(=O)([O-])OCC[N+](C)(C)C)OC(=O)CCCCCCC/C=C(\CCCCCC)[N+](=O)[O-])[N+](=O)[O-] [Example N19, 1,2-di-(E-10-nitropalmitoleoyl)-sn-3-glycerophosphocholine]	84%		
CC/C=C\C/C=C\C/C=C\C/C=C\C/C=C\C/C=C\CCC(=O)OC[C@H](COP(=O)([O-])OCC[N+](C)(C)C)OC(=O)CCCCCCC/C=C(\CCCCCC)[N+](=O)[O-] [Example P11, 1-DHA-2-(E-10-nitropalmitoleoyl)-sn-3-glycerophosphocholine]		97%	
1-erucinyl-2-(9-nitrogadoleoyl)-sn-3-glycerophosphocholine and 1-erucinyl-2-(10-nitrogadoleoyl)-sn-3-glycerophosphocholine [Example P3]	90%	97%	
1-Palmitoyl-2-(E-9-nitrooleoyl)-sn-3-glycero-phosphatidylinositol [PNOPI]	82%		
1,2-di-(5-nitroeicosapentaenoyl)-sn-3-glycerophosphocholine, 1,2-di-(6-nitroeicosapentaenoyl)-sn-3-glycerophosphocholine, 1-(5-nitroeicosapentaenoyl)-2-(6-nitroeicosapentaenoyl)-sn-3-glycerophosphocholine and 1-(6-nitroeicosapentaenoyl)-2-(5-nitroeicosapentaenoyl)-sn-3-glycerophosPhocholine [Example N10]	82%	98%	
CC/C=C(\C/C=C\C/C=C\CCCCCCCC(=O)OC[C@H](COP(=O)([O-])OCC[N+](C)(C)C)OC(=O)CCCCCCC/C=C\C/C=C\C/C(=C\CC)[N+](=O)[O-])[N+](=O)[O-] [Example N20, 1,2-di-(E-15-nitro-α-linolenoyl)-sn-3-glycerophosphocholine]	82%		
1,2-di-(dinitro-α-linolenoyl)-sn-glycero-3-phosphatidylcholines [Example N14]	81%		
CCCCCCCC/C(=C\CCCCCCCC(=O)O[C@H](COC(=O)CCCCC1CCSS1)COP(=O)([O-])OCC[N+](C)(C)C)[N+](=O)[O-] (stereo partly drawn) [Example P9, 1-liponoyl-2-(E-10-nitrooleoyl)-sn-3-glycerophosphocholine]		90%	
1,2-di-(dinitrolinoleoyl)-sn-glycero-3-phosphatidylcholines [Example N12]		88%	
1,2-di-(dinitroeicosapentaenoyl)-sn-glycero-3-phosphatidylcholines [Example N13]		91%	
CCCCCCCCCCCCCCCC(=O)OC[C@H](COP(=O)([O-])OCC[N+](C)(C)C)OC(=O)CCCCCCCC(C(O)CCCCCCCC)[N+](=O)[O-] (stereo partly drawn) [Example O2, 1-palmitoyl-2-(9-nitro-10-hydroxy-stearoyl)-sn-3-glycerophosphocholine]		87%	
1-Palmitoyl-2-(9-hydroxy-10-nitrostearoyl)-sn-3-glycerophosphocholine and 1-palmitoyl-2-(10-hydroxy-9-nitrostearoyl)-sn-3-glycerophosphocholine [Example O4]		93%	
1,2-di-(nitroarachidonoyl)-sn-glycero-3-phosphatidylcholines [Example N3]		94%	
1,2-di-(9-nitro-α-linolenoyl)-sn-3-glycerophosphocholine, 1,2-di-(10-nitro-α-linolenoyl)-sn-3-glycerophosphocholine, 1-(9-nitro-α-linolenoyl)-2-(10-nitro-α-linolenoyl)-sn-3-glycerophosphocholine and 1-(10-nitro-α-linolenoyl)-2-(9-nitro-α-linolenoyl)-sn-3-glycerophosphocholine [Example N11]		95%	
1,2-di-(nitroarachidonoyl)-sn-glycero-3-phosphatidylcholines [Example N4]		92%	
